The test system of assay [1] is primary neuronal cultures from rat cerebral cortex. The assay can be described thus: Neuroprotection (MTT cell viability) in primary neuronal cultures exposed to oxygen-glucose deprivation (OGD). The format is cell-based. The note with it: 24 h recovery after 4 h OGD; for neuronal viability compared with R24 h (in words): concentrations as stated or in FIG. 4. The method, then: Primary neuronal cultures. Primary neuronal cultures from rat cerebral cortex were prepared as previously described.^54 All procedures associated with animal experiments were approved by the Ethics Committee of the Hospital Ramón y Cajal, Madrid (Spain). Cell suspensions from cerebral cortex were prepared from 16- to 17-day-old Sprague-Dawley rat embryos. Living cells in cell suspension were counted by trypan blue exclusion method. Cells were seeded on plastic multidishes precoated with 0.05 mg/mL poly-D-lysine at a density of 2.5×10^5 cells/cm^2 and were kept at 37° C. in a 6.5% CO2 atmosphere in high glucose Dulbecco's medium supplemented with 15% heat-inactivated (56° C. for 30 min) foetal calf serum. After 24 h, cultured cells were […] to induce experimental ischemia.^23 Cultured cells were washed and placed in glucose-free Dulbecco's medium (bubbled with 95% N2/5% CO2 for 30 min), and maintained in a humidified hypoxia chamber equipped with an oxygen and carbon dioxide control unit (Biospherix) at 6.5% CO2 and <0.1% O2 in N2 at 37° C. Cells were exposed to OGD for a period of 4 h (OGD 4 h). At the end of the OGD period, culture medium was replaced with oxygenated serum-free medium, and cells were placed and maintained in the normoxic incubator for 24 h to recovery (R24 h). In the neuroprotection experiments, the compounds were added at the onset of recovery period. Control cultures in Dulbecco's medium containing glucose were kept in the normoxic incubator for the same period of time as the OGD, and then medium (Dulbecco's/Ham's F12, 1:1 [vol/vol], 5 mg/mL glucose, 2 mM L-glutamine, and 1 mM sodium pyruvate, and supplemented with 100 μg/mL transferrin, 100 μM putrescine, 20 nM progesterone, 30 nM sodium selenite and 5 μg/mL insulin). Here, 6-7 day old cultured neurons were used in the experiments, and contained 90% β-III-tubulin-positive mature neurons, as described previously.^55
Exposure of cell cultures to oxygen-glucose deprivation and treatments. Primary neuronal cultures were exposed to […]. Control experiments included the same amounts of vehicle (final concentration<0.5% ethanol). Nitrone 2 was used as reference compound for neuroprotection. The experimental procedures were blindly performed, assigning a random order to each assayed nitrone. Nitrones were analyzed independently four-eight times with different batch of cultures and each experiment was run in quadruplicate.
Cell viability assay. Cell viability was evaluated by quantification of living, metabolically active cells, as determined by a colorimetric assay using the photometric reduction of 3-(4,5-dimethylthiazol-2-yl)-2,5-diphenyl tetrazolium bromide (MTT) (Roche) to a blue formazan product. The assay of living, metabolically active cells was performed by incubating with 0.2 mg/mL MTT in the culture medium for 1.5 h in an incubator at 37° C. in a 6.5% CO2 atm. After the incubation period, cells were lysed with an equal volume of 10 mM HCl and 10% SDS overnight. Values were quantified by absorbance (test 595 nm, reference 690 nm). Decreased MTT activity denotes impairment of mitochondrial function and is considered to be an index of cell damage. Primary neuronal cultures were collected at times indicated for MTT determination.
Neuroprotection of compounds was evaluated by a cell viability assay. The neuroprotective effect of the compounds 5-32 was evaluated on primary neuronal cultures from cerebral cortex subjected to oxygen-glucose deprivation (OGD) to induce experimental ischemia. Afterwards, cultured neurons were placed and kept in normoxic and normoglycemic conditions to recovery. […]

Assay [2] can be described thus: Inhibition of linoleic acid peroxidation (AAPH, ILPO). The format is biochemical. Conditions: tested at 100 μM. As to the method:
Inhibition of Linoleic Acid Peroxidation.^32 For initiating the free radical, 2,2′-azobis(2-amidinopropane) dihydrochloride (AAPH) is used. The final solution in the UV cuvette consisted of ten microliters of the 16 mM linoleate sodium dispersion 0.93 mL of 0.05 M phosphate buffer, pH 7.4, thermostatted at 37° C. 50 μL of 40 mM AAPH solution was added as a free radical initiator at 37° C. under air and 10 μL of the tested compounds. The oxidation of linoleic acid sodium salt results a conjugated diene hydroperoxide. The reaction is monitored at 234 nm (Table 1).
3.3. Anti-lipid peroxidation activity of QNs. The water-soluble azo compound 2,2′-azobis(2-amidinopropane) dihydrochloride (AAPH) has been extensively used as a clean and controllable source of thermally produced alkyl peroxyl free radicals through spontaneous thermal decomposition. […] In the AAPH assay to determine the inhibition of the lipid peroxidation (ILPO), the highly reactive alkylperoxyl radicals are intercepted mainly by a hydrogen atom transfer from the antioxidant. As shown, QN23 presented limited value, where QNs 19, 22 and 24 presented very high values (Table 3).

The nature of assay [3]: Interaction with the stable radical DPPH. The format is biochemical. Conditions: tested at 100 μM; reducing activity. As to the method:
Interaction of the nitrone with the Stable Radical 1,1-diphenyl-picrylhydrazyl (DPPH) To a solution of DPPH in absolute ethanol the appropriate volume of the compounds (0.1 mM final concentrations) dissolved in DMSO was added. The absorbance was recorded at 517 nm after 20 and 60 min at room temperature (Table 1).
3.1. Antioxidant activity of QNs using radical DPPH. […] This purple colour generally disappears in the presence of an antioxidant due to the reduction of the DPPH radical by single electron transfer (SET) from the antioxidant converted it to colourless/bleached product. […] In this assay, we measured the initial absorbance of DPPH and the absorbance once the potential antioxidant was added. The antioxidant activity was expressed as the percentage of reducing activity.
In general terms: Loss of DPPH colour is used to gauge radical scavenging.

A short description of assay [4]: Superoxide radical scavenging (hypoxanthine/xanthine oxidase system). The format is biochemical. Conditions: tested at 100 μM (0.1 mM). The source says:
3.7. Superoxide radical scavenging activity. Superoxide anion radical (O2⋅−) is less toxic than hydroxyl radical, but still one of the most known harmful toxic ROS. In physiological conditions, superoxide dismutase catalyzes its conversion to H2O2, which is the precursor for the formation of hydroxyl radicals in the presence of iron ions.43 Superoxide anion radicals O2⋅− and H2O2 are ROS produced in vivo through a one-electron reduction process of O2. The evaluation of superoxide anion radical scavenging activity can be determined using assays involving non-enzymatic or enzymatic production of superoxide anions. In this assay, superoxide anion radicals were generated by a hypoxanthine and xanthine oxidase reaction system, and the O2⋅− scavenging activity (%) has been measured spectrophotometrically.

The mark [5] stands for this setting: Rattus norvegicus, R24 h = 0%, control = 100%.

By viability is commonly meant a read-out of living cells in per cent, often relative to untreated cells.

Where only a bound is given, the exact number is not on record here.

Turning to `CC(C)(C)/[N+]([O-])=C/c1ccc(S(=O)(=O)O)cc1S(=O)(=O)O` [Compound 2, sodium (Z)-4-((tert-butyloxidoazanylidene)methyl)benzene-1,3-disulfonate, reference compound], the “neuronal viability compared with R24 h (in words)” value in assay [1] is listed as “only produced a significant neuroprotective effect at 250 μM”. In assay [1] (setting [5]), this molecule returned a viability at 100 µM of 42.8 ± 2.31% and a viability at 250 µM of 52.9 ± 2.52%. The viability at 500 µM in assay [1] (Rattus norvegicus, 500 μM, R24 h = 0%, control = 100%) was found to be 46.5 ± 1.1%. For the same molecule, in assay [2], the “ILPO (%) / AAPH (%)” value is listed as “no”. The “DPPH (%)” value in assay [3] is “no”. Besides, the “O2*− (%)” value in assay [4] was “no activity and no”.
As to `CC(C)(C)/[N+]([O-])=C/c1cc2ccccc2nc1Cl` [Compound 18, (Z)—N-t-Butyl-1-(2-chloroquinolin-3-yl)methanimine oxide], in assay [1] (setting [5]), the viability at 1 µM amounted to 9.76 ± 0.84%, the viability at 10 µM came to 29 ± 3.83% and the viability at 100 µM was under 0%. Moreover, the “ILPO (%) / AAPH (%)” value in assay [2] is listed as “no”. Also, the “DPPH (%)” value in assay [3] was 7%. Also, the “O2*− (%)” value in assay [4] is recorded as 16%.
As to `CC(C)(C)/[N+]([O-])=C/c1cc2ccccc2[nH]c1=O` [Compound 19, (Z)—N-tert-Butyl-1-(2-oxo-1,2-dihydroquinolin-3-yl)methanimine oxide], in assay [1], the “neuronal viability compared with R24 h (in words)” value was “significantly increased neuronal viability”. In assay [1] (setting [5]), this molecule had a viability at 100 µM of 48.8 ± 2.29% and a viability at 250 µM of 55 ± 1.89%. Besides, the “ILPO (%) / AAPH (%)” value in assay [2] was determined as 100%. Also, the “DPPH (%)” value in assay [3] is “no”. Further, the “O2*− (%)” value in assay [4] was 23%.
In assay [1] (setting [5]), `COc1ccc2nc(Cl)c(/C=[N+](/C)[O-])cc2c1` [Compound 22, (Z)-1-(2-Chloro-6-methoxyquinolin-3-yl)-N-methylmethanimine oxide] came in with a viability at 0.3 µM of under 0%, a viability at 1 µM of under 0%, a viability at 10 µM of under 0% and a viability at 100 µM of under 0%. In assay [1] (setting [5]), the viability at 250 µM was under 0%. Moreover, the “ILPO (%) / AAPH (%)” value in assay [2] is 100%. Also, the “DPPH (%)” value in assay [3] is “no”. The “O2*− (%)” value in assay [4] stood at 29%.
Take `COc1ccc2nc(Cl)c(/C=[N+](\[O-])C(C)(C)C)cc2c1` [Compound 23, (Z)—N-tert-Butyl-1-(2-chloro-6-methoxyquinolin-3-yl)methanimine oxide]: in assay [1], the “neuronal viability compared with R24 h (in words)” value is on record as “significantly increased neuronal viability”. Also, in assay [1] (setting [5]), the viability at 10 µM was found to be 52 ± 1.75%, the viability at 100 µM is 77.1 ± 2.24% and the viability at 250 µM came to 65.9 ± 2.87%. Further, in assay [2], the “ILPO (%) / AAPH (%)” value worked out at 22%. For the same molecule, the “DPPH (%)” value in assay [3] is listed as 4%. Besides, the “O2*− (%)” value in assay [4] was 5%.
Turning to `COc1ccc2nc(Cl)c(/C=[N+](\[O-])Cc3ccccc3)cc2c1` [Compound 24, (Z)—N-Benzyl-1-(2-chloro-6-methoxyquinolin-3-yl)methanimine oxide], in assay [1] (setting [5]), the viability at 0.3 µM was under 0%, the viability at 1 µM was 31.3 ± 1.38%, the viability at 10 µM turned out to be 29.7 ± 1.38% and the viability at 100 µM was found to be 38.9 ± 1.31%. Further, the “ILPO (%) / AAPH (%)” value in assay [2] worked out at 100%. The “DPPH (%)” value in assay [3] is 3%. The “O2*− (%)” value in assay [4] is 12.5%.
Regarding `COc1ccc2nc(Cl)c(C=O)cc2c1` [Compound 32, 2-chloro-6-methoxyquinoline-3-carbaldehyde, reference compound], the “neuronal viability compared with R24 h (in words)” value in assay [1] was “nor carbaldehyde 32, the precursor of potent QN 23, showed neuroprotective activity”. Moreover, in assay [1] (setting [5]), the viability at 1 µM is under 0%, the viability at 10 µM is under 0% and the viability at 100 µM was under 0%. Also, the “ILPO (%) / AAPH (%)” value in assay [2] worked out at 25%. In assay [3], the “DPPH (%)” value was 1%. Moreover, in assay [4], the “O2*− (%)” value turned out to be 23%.

These data come from patent publication US12102631B2, “Quinolylnitrones for the treatment and prevention of a cerebral stroke or ischaemia” (ISQUAEMIA BIOTECH, S.L., priority 2018, dated 2024).
